These results are taken from patent publication EP4603105A1, “PHARMACEUTICAL COMPOSITION CONTAINING CYCLIC COMPOUND HAVING SELECTIVE KRAS INHIBITORY EFFECT AGAINST HRAS AND NRAS” (CHUGAI SEIYAKU KABUSHIKI KAISHA, priority 2022, dated 2024).

A word on the Kd: it is the concentration at which binding is half-saturated. Lower therefore signals tighter binding. A word on the IC50: it is the concentration that gives 50% inhibition. A higher IC50 goes with weaker potency.

Assay [1] concerns the target GDP-bound KRAS wild-type protein (Homo sapiens, UniProt P01116). The assay is described as follows: Binding to KRAS by surface plasmon resonance (SPR), dissociation constant KD. As to conditions: 1:1 binding model. In a few lines:
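GDP-loaded biotinylated Avi-tag RAS proteins (E. coli-expressed) captured on a Biotin CAPture chip at ~100–300 RU; single-cycle kinetics at 30°C, 100 µL/min, 75 s injections of rising compound concentrations. HBS pH 7.4 running buffer with 1 mM DTT, 10 mM MgCl2, 10 µM GDP, 4% DMSO. KD from 1:1 binding fit.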
On the technique in general: Surface plasmon resonance follows binding to a sensor surface in real time, without labels.

Assay [2] has as its system human lung cancer strain NCI-H441. The assay is classed as cell-based. The procedure, abridged:
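Step one: dispense the test compound in serial DMSO dilutions. Step three: add the reagent and measure […].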

In a further assay the target is HRAS wild-type protein (Homo sapiens, UniProt P01112). Description: Binding to HRAS by surface plasmon resonance (SPR), KD and KD ratio to KRAS. The note with it: ratio of KD for HRAS wild-type protein to KD for KRAS. The procedure, abridged: (§1)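 Running buffer contained 10 µM GDP and 10 mM MgCl2 to keep RAS in the GDP state, with 4% DMSO at pH 7.4. Compounds were flowed at 100 µL/min in 75 s steps of rising concentration over captured biotin-Avi RAS at 30°C. Sensorgrams were fitted 1:1 for KD.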

Assay [3] has as its target GDP-bound NRAS wild-type protein (Homo sapiens, UniProt P01111). Description: Binding to NRAS by surface plasmon resonance (SPR), KD and KD ratio to KRAS. As to conditions: ratio of KD for GDP-bound NRAS wild-type protein to KD for KRAS. The procedure, abridged:
as §1

GDP-bound NRAS wild-type protein, sequence (P01111 whole entry): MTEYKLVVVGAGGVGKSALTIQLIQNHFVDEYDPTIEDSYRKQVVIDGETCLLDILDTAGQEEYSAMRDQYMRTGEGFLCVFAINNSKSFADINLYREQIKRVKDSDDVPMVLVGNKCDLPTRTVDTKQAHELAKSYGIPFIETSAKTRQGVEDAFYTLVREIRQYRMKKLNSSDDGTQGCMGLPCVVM
HRAS wild-type protein, sequence (P01112 whole entry): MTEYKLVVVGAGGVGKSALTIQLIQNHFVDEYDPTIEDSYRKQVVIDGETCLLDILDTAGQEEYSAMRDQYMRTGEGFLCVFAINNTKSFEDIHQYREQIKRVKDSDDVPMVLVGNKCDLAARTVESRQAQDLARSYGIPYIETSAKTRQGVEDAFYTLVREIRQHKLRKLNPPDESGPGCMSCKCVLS
GDP-bound KRAS wild-type protein, sequence (P01116 1-188 isoform P01116-2): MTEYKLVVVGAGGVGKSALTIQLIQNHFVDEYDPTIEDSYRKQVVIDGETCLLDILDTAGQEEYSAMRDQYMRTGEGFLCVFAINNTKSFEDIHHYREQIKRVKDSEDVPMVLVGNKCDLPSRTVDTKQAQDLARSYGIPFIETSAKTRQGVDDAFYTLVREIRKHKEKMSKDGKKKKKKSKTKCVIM

As for `CCCC[C@H]1C(=O)N[C@@H]([C@@H](C)CC)C(=O)N(C)CC(=O)N(C)[C@H]2C/C=C\CCN(C2=O)[C@@H](Cc2ccc(C(F)(F)F)cc2)C(=O)N(C)CC(=O)N[C@@H](CCc2ccc(C(F)(F)F)cc2Cl)C(=O)N2C[C@H](F)C[C@H]2C(=O)NC2(CC(C)(C)C2)C(=O)N(C)[C@@H](C2CCC2)C(=O)N(C)[C@H](C(=O)N(C)C)CC(=O)N1C` [PP3124], binding in assay [1] was characterised by a dissociation constant (Kd) of 1.1 nM. The same compound yielded an IC50 in assay [2] of 39 nM. Further, the “HRAS /KRAS” value at HRAS wild-type protein was “A (a compound having 10 or more and less than 20 is denoted as A)”. For the same compound, the “NRAS /KRAS” value in assay [3] is “A (a compound having 10 or more and less than 20 is denoted as A)”.
Turning to `C#CC[C@H]1C(=O)N[C@@H]([C@@H](C)CC)C(=O)N(C)CC(=O)N(C)[C@H]2C/C=C\CCN(C2=O)[C@@H](Cc2ccc(C(F)(F)F)cc2)C(=O)N(C)CC(=O)N[C@@H](CCc2ccc(C(F)(F)F)c(OC)c2)C(=O)N2C[C@H](F)C[C@H]2C(=O)NC2(CC(C)(C)C2)C(=O)N(C)[C@@H](CCC=C)C(=O)N(C)[C@H](C(=O)N(C)C)CC(=O)N1C` [PP3126], the affinity in assay [1], expressed as Kd, was 0.81 nM. The compound also had an IC50 in assay [2] of 116 nM. The “HRAS /KRAS” value at HRAS wild-type protein was “A (a compound having 10 or more and less than 20 is denoted as A)”. The “NRAS /KRAS” value in assay [3] is given as “AA (a compound having 20 or more is denoted as AA)”.
As for `C#CC[C@H]1C(=O)N[C@@H]([C@@H](C)CC)C(=O)N(C)CC(=O)N(C)[C@H]2C/C=C\CCN(C2=O)[C@@H](Cc2ccc(C(F)(F)F)cc2)C(=O)N(C)CC(=O)N[C@@H](CCc2ccc(C(F)(F)F)c(OC)c2)C(=O)N2C[C@H](OCC)C[C@H]2C(=O)NC2(CCCC2)C(=O)N(C)[C@@H](C2CCC2)C(=O)N(C)[C@H](C(=O)N2CCCCC2)CC(=O)N1C` [PP3131], the Kd in assay [1] was determined as 2.8 nM. Moreover, in assay [2], the IC50 came out at 157 nM. Besides, the “HRAS /KRAS” value at HRAS wild-type protein was “A (a compound having 10 or more and less than 20 is denoted as A)”. In addition, the “NRAS /KRAS” value in assay [3] is “A (a compound having 10 or more and less than 20 is denoted as A)”.
In the case of `C#CC[C@H]1C(=O)N[C@@H]([C@@H](C)CC)C(=O)N(C)CC(=O)N(C)[C@H]2C/C=C\CCN(C2=O)[C@@H](Cc2ccc(C(F)(F)F)cc2)C(=O)N(C)CC(=O)N[C@@H](CCc2ccc(C(F)(F)F)c(OC)c2)C(=O)N2C[C@H](F)C[C@H]2C(=O)NC2(CC(C)(C)C2)C(=O)N(C)[C@@H](CCC=C)C(=O)N(C)[C@H](C(=O)N2CCCC2)CC(=O)N1C` [PP3132], the Kd in assay [1] was 3.5 nM. Moreover, in assay [2], the IC50 is 245 nM. Also, the “HRAS /KRAS” value on HRAS wild-type protein was “A (a compound having 10 or more and less than 20 is denoted as A)”. Further, in assay [3], the “NRAS /KRAS” value was “A (a compound having 10 or more and less than 20 is denoted as A)”.
Consider `C#CC[C@H]1C(=O)N[C@@H]([C@@H](C)CC)C(=O)N(C)CC(=O)N(C)[C@H]2C/C=C\CCN(C2=O)[C@@H](Cc2ccc(C(F)(F)F)cc2)C(=O)N(C)CC(=O)N[C@@H](CCc2ccc(C(F)(F)F)c(OC)c2)C(=O)N2C[C@H](C)[C@H]2C(=O)NC2(CCC2)C(=O)N(C)[C@@H](C2CCCC2)C(=O)N(C)[C@H](C(=O)N2CCOCC2)CC(=O)N1C` [PP3133], for which the Kd in assay [1] stood at 1.1 nM. In assay [2], this compound had an IC50 of 220 nM. Further, the “HRAS /KRAS” value on HRAS wild-type protein was “A (a compound having 10 or more and less than 20 is denoted as A)”. Further, in assay [3], the “NRAS /KRAS” value is “A (a compound having 10 or more and less than 20 is denoted as A)”.
The compound `CC[C@H](C)[C@@H]1NC(=O)[C@H](COC)N(C)C(=O)C[C@@H](C(=O)N(C)C)N(C)C(=O)[C@H](C2CCCC2)N(C)C(=O)C2(CC(C)(C)C2)NC(=O)CNC(=O)[C@H](CCc2ccc(C(F)(F)F)c(Cl)c2)NC(=O)CN(C)C(=O)[C@H](Cc2ccc(C(F)(F)F)cc2)N2CC/C=C\C[C@@H](C2=O)N(C)C(=O)CN(C)C1=O` [PP3134] displayed a Kd in assay [1] of 0.33 nM. The IC50 in assay [2] turned out to be 812 nM. In addition, at HRAS wild-type protein, the “HRAS /KRAS” value was “A (a compound having 10 or more and less than 20 is denoted as A)”. The “NRAS /KRAS” value in assay [3] is on record as “AA (a compound having 20 or more is denoted as AA)”.
In assay [1], `CC[C@H](C)[C@@H]1NC(=O)[C@H](COC)N(C)C(=O)C[C@@H](C(=O)N(C)CC)N(C)C(=O)[C@H](C2CCCC2)N(C)C(=O)C2(CC(C)(C)C2)NC(=O)[C@@H]2CC(F)(F)CN2C(=O)[C@H](CCc2ccc(C(F)(F)F)c(Cl)c2)NC(=O)CN(C)C(=O)[C@H](Cc2ccc(C(F)(F)F)cc2)N2CC/C=C\C[C@@H](C2=O)N(C)C(=O)CN(CC)C1=O` [PP3135] gave a Kd of 1.1 nM. The same compound gave an IC50 in assay [2] of 27.6 nM. Also, the “HRAS /KRAS” value on HRAS wild-type protein is “A (a compound having 10 or more and less than 20 is denoted as A)”. For the same compound, the “NRAS /KRAS” value in assay [3] is “A (a compound having 10 or more and less than 20 is denoted as A)”.
The compound `CC[C@H](C)[C@@H]1NC(=O)[C@H](COC)N(C)C(=O)C[C@@H](C(=O)N(C)CC)N(C)C(=O)[C@H](C2CCCC2)N(C)C(=O)C2(CC(C)(C)C2)NC(=O)[C@@H]2CC(F)(F)CN2C(=O)[C@H](CCc2ccc(C(F)(F)F)c(OC)c2)NC(=O)CN(C)C(=O)[C@H](Cc2ccc(C(F)(F)F)cc2)N2CC/C=C\C[C@@H](C2=O)N(C)C(=O)[C@@H]2CCN2C1=O` [PP3136] had a Kd in assay [1] of 0.63 nM. Further, 47 nM corresponded to half-maximal inhibition in assay [2] (IC50). Further, the “HRAS /KRAS” value on HRAS wild-type protein was “B (a compound having 3 or more and less than 10 is denoted as B)”. Moreover, the “NRAS /KRAS” value in assay [3] was “B (a compound having 3 or more and less than 10 is denoted as B)”.
Take `CC[C@H](C)[C@@H]1NC(=O)[C@H](COC)NC(=O)C[C@@H](C(=O)N(C)CC)N(C)C(=O)[C@H](C2CCCC2)N(C)C(=O)C2(CC(C)(C)C2)NC(=O)[C@@H]2C[C@@H](F)CN2C(=O)[C@H](CCc2ccc(C(F)(F)F)c(OC)c2)NC(=O)CN(C)C(=O)[C@H](Cc2ccc(C(F)(F)F)cc2)N2CC/C=C\C[C@@H](C2=O)N(C)C(=O)CN(C)C1=O` [PP3137]: binding in assay [1] was characterised by a dissociation constant (Kd) of 0.084 nM. In addition, in assay [2], the IC50 was found to be 23 nM. On HRAS wild-type protein, the “HRAS /KRAS” value is “A (a compound having 10 or more and less than 20 is denoted as A)”. In assay [3], the “NRAS /KRAS” value is “A (a compound having 10 or more and less than 20 is denoted as A)”.
Regarding `CC[C@H](C)[C@@H]1NC(=O)[C@H](COC)N(C)C(=O)C[C@@H](C(=O)N(C)CC)N(C)C(=O)[C@H](C2CCCC2)N(C)C(=O)C2(CC(C)(C)C2)NC(=O)[C@@H]2C[C@@H](F)CN2C(=O)[C@H](CCc2cc(F)cc(F)c2)NC(=O)CN(C)C(=O)[C@H](Cc2ccc(C(F)(F)F)cc2)N2CC/C=C\C[C@@H](C2=O)N(C)C(=O)CN(C)C1=O` [PP3138], the Kd in assay [1] came to 4.4 nM. The compound further yielded an IC50 in assay [2] of 507 nM. For the same compound, on HRAS wild-type protein, the “HRAS /KRAS” value is “A (a compound having 10 or more and less than 20 is denoted as A)”. The “NRAS /KRAS” value in assay [3] is “A (a compound having 10 or more and less than 20 is denoted as A)”.
`CCO[C@@H]1C[C@H]2C(=O)NC3(CC(C)(C)C3)C(=O)N(C)[C@@H](C3CCCC3)C(=O)N(C)[C@H](C(=O)N(C)CC)CC(=O)N(C)[C@@H](CC(C)C)C(=O)N[C@@H]([C@@H](C)CC)C(=O)N(C)CC(=O)N(C)[C@H]3C/C=C\CCN(C3=O)[C@@H](Cc3ccc(C(F)F)cc3)C(=O)N(C)CC(=O)N[C@@H](CCc3ccc(C(F)(F)F)c(CC)c3)C(=O)N2C1` [PP3141] had a Kd in assay [1] of 0.25 nM. Further, the IC50 in assay [2] amounted to 9.8 nM. For the same compound, at HRAS wild-type protein, the “HRAS /KRAS” value is “A (a compound having 10 or more and less than 20 is denoted as A)”. Further, the “NRAS /KRAS” value in assay [3] was “A (a compound having 10 or more and less than 20 is denoted as A)”.
